Experimental data published in patent publication US7901716B2, “Active fraction having anti-cancer and anti-metastasis isolated from leaves and stems of ginseng” (MD Bioalpha Co., Ltd., priority 2002, dated 2011).

Description: In the present experiment, the number of immune cells was measured in co-administration of MB40100, which was expected to reduce the immune inhibition occurring with administration of cyclophosphamide.
24 hours and 48 hours after administration of cyclophosphamide (250 mg/kg), MB40100 was abdominally administered in mice at the different dosages (10 mg/kg, 20 mg/kg), respectively. After 7 days, the mice were killed to separate bone marrow cells and splenocytes, and then the number of these cells was counted pursuant to the tryphan blue exclusion method.
Peripheral blood was rapidly gathered from the eyeball distal vein using a heparin-treated capillary glass tube and collected in a K3-EDTA-treated blood-gathering tube, then examined it with an automatic globule analyzer.

O=P1(N(CCCl)CCCl)NCCCO1 (stereo not drawn) [cyclophosphamide]
reduction of number of WBC compared with normal mouse (cyclophosphamide 250 mg/kg alone): about 30% | number of WBC in blood (cyclophosphamide 250 mg/kg alone, normal mouse 7800): 5300 | number of splenocytes less than normal mouse (cyclophosphamide alone): about 72.8% | decrease of bone marrow cell density versus normal mouse (cyclophosphamide alone, 7 days after): 29.2% | bone marrow cell density (cyclophosphamide alone, 7 days after, normal mouse 41.1×10^6): 29.6×10^6 cells/ml | number of thrombocytes less than normal mouse (cyclophosphamide alone, peripheral blood): about 56%
